Reference: patent publication US12202835B2, “Substituted aromatic ring-linked dioxinoquinazolines and dioxinoquinolines as kinase inhibitors” (BEIJING SCITECH-MQ PHARMACEUTICALS LIMITED, priority 2018, dated 2025)

Key:
[1] = molecular target: TRKA kinase (Homo sapiens (Human), UniProt P04629); experiment: Assay of small molecular compounds for inhibiting the activity of TRKA kinase (LANCE TR-FRET); type: biochemical
Summary of the method: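 LANCE TR-FRET with ULight-TK peptide; compounds pre-incubated 5 min with TRKA (2× solution 2 nM), then substrate/ATP added (4× mix: 400 nM peptide, 40 μM ATP). Reaction 60 min at room temperature in dark, 1% DMSO final; stopped, detection developed 60 min, signal read.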

[2] = molecular target: MER kinase (Homo sapiens (Human), UniProt Q12866); experiment: Assay of small molecular compounds for inhibiting the activity of MER kinase (LANCE TR-FRET); type: biochemical
MER kinase, sequence (Q12866 21-999): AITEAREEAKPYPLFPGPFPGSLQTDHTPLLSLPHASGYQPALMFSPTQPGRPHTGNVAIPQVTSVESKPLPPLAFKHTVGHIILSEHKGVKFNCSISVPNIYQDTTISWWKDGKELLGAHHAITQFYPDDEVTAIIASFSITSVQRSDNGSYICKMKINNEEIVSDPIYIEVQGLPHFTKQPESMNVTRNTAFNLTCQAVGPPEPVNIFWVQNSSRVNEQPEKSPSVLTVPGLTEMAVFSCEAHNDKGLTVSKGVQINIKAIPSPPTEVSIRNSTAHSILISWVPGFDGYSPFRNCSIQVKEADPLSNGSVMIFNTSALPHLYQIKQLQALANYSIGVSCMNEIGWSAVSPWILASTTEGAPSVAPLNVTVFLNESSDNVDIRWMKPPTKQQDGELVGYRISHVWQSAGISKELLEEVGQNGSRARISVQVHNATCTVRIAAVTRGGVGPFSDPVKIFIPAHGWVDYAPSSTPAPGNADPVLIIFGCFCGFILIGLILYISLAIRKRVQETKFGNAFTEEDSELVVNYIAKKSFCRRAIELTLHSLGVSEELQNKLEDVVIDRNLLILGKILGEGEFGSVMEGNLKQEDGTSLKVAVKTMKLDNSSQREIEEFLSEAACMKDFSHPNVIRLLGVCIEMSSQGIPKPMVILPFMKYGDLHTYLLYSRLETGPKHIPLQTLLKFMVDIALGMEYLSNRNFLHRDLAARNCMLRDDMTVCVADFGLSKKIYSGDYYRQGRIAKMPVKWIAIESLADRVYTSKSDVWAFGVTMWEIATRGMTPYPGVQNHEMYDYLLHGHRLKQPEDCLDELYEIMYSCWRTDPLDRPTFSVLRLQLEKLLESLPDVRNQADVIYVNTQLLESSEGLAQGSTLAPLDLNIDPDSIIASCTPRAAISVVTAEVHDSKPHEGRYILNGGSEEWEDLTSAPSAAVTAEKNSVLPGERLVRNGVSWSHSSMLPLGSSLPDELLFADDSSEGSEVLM
Summary of the method: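 MER kinase preincubated 5 min at RT with compound (11 points, 0.042-2500 nM final), then ULight-poly GT and ATP added (4× stocks 200 nM and 20 μM) for 60 min at RT, 1% DMSO. Phosphorylation detected by LANCE TR-FRET; IC50 from % inhibition versus controls.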

[3] = molecular target: c-MET kinase (Homo sapiens (Human), UniProt P08581); experiment: Assay of small molecular compounds for inhibiting the activity of c-MET kinase (LANCE TR-FRET); type: biochemical; details: read-out: CMET IC50
c-MET kinase, sequence (P08581 25-1390): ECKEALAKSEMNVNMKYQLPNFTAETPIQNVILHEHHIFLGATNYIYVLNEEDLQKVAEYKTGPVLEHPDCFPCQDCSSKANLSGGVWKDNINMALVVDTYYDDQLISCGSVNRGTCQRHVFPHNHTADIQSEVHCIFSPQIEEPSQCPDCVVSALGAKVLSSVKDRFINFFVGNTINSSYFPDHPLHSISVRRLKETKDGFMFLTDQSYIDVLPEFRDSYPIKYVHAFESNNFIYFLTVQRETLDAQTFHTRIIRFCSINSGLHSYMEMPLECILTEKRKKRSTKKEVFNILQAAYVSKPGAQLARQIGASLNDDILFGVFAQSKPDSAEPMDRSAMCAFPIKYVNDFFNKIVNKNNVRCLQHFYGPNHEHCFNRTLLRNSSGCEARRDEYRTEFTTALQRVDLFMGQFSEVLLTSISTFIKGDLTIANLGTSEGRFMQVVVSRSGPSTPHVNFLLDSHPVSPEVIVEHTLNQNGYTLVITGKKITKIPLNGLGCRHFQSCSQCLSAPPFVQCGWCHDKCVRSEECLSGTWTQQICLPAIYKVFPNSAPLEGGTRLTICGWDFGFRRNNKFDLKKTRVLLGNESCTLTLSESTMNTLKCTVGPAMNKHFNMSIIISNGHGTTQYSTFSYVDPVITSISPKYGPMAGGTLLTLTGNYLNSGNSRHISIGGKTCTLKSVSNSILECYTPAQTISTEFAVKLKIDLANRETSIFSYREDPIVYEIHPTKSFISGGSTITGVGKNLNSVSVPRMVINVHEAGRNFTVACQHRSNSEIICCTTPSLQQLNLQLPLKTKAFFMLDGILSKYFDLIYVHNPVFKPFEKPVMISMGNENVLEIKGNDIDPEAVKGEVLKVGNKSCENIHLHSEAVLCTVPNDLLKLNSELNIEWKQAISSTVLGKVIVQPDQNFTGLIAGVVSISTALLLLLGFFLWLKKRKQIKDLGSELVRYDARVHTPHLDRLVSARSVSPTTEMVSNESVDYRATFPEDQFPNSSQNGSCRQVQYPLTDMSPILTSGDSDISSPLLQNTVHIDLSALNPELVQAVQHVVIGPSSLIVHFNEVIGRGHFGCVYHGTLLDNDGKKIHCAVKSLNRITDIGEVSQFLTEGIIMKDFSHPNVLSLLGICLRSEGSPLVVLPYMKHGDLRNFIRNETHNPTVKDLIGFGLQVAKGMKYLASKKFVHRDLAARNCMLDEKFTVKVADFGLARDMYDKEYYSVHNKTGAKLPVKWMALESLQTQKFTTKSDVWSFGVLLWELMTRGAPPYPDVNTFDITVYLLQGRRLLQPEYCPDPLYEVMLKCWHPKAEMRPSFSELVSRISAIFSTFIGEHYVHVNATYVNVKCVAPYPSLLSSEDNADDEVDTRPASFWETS
Summary of the method: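 LANCE TR-FRET assay with c-MET at 1 nM final after a 5 min room-temperature preincubation with compound (11-point, 3-fold series, 2500–0.042 nM final, 4% DMSO). ULight-JAK-1 (Tyr1023) peptide (100 nM final) and ATP (10 μM final) reacted 60 min in the dark. Inhibition was taken relative to controls, then IC50 fitted.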

[4] = system: Ba/F3-AXL cells; experiment: Assay for inhibiting the proliferation of Ba/F3-AXL cells (CCK-8); type: cell-based; details: 72 hours of incubation, medium with 100 ng/mL hGas6, CCK-8
Procedure: The values were then imported into Graphpad Prism 5 software for curve fitting, and IC50 was calculated.

[5] = molecular target: VEGFR-2 kinase (Homo sapiens (Human), UniProt P35968); experiment: Assay of small molecular compounds for inhibiting the activity of VEGFR-2 kinase (LANCE TR-FRET); type: biochemical; details: read-out: VEGFR2 IC50
VEGFR-2 kinase, sequence (P35968 20-1356): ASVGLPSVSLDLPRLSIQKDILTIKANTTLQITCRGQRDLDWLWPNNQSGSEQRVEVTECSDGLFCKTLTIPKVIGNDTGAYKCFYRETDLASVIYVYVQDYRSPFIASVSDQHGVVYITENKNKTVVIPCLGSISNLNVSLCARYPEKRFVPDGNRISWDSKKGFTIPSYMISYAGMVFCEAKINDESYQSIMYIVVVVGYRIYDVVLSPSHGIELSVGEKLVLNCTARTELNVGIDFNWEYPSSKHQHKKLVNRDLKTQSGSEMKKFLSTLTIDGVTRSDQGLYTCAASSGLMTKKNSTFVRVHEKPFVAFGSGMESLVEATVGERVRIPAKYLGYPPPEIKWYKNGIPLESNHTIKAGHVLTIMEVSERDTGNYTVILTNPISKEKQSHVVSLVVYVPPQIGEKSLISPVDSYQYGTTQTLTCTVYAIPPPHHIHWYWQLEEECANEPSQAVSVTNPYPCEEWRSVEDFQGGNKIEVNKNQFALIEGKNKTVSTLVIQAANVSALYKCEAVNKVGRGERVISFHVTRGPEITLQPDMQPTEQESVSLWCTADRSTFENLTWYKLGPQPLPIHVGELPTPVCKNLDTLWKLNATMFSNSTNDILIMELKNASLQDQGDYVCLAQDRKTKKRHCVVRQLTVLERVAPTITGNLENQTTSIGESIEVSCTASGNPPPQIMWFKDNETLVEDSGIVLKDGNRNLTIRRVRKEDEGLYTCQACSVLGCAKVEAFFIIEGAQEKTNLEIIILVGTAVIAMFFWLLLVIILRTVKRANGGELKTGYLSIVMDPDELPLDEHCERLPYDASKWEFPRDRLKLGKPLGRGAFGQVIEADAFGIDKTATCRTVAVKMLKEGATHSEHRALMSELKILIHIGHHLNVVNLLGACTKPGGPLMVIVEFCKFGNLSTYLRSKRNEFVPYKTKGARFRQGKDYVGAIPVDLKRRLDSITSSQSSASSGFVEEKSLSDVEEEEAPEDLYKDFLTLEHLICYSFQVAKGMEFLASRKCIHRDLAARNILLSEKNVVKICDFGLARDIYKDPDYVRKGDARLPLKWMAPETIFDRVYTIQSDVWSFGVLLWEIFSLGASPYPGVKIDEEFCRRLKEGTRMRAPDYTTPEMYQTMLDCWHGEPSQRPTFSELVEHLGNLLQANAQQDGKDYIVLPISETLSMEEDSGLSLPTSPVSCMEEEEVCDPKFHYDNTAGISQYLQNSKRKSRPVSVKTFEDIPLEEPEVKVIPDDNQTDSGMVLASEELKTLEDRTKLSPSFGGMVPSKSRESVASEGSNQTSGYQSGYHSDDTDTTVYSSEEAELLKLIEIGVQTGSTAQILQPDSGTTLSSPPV
Procedure: The assay is based on the LANCE TR-FRET technology of Perkin Elmer Inc., and the assay method is as follows: • 1. Dilution of compounds: a total of 11 concentrations were obtained using a 3-fold gradient dilution from the highest concentration of 2500 nM (the maximum final concentration of the drug used in this assay was 2500 nM, and the minimum final concentration was 0.042 nM). • 2. 2.5 μL of the gradient-diluted compounds were taken with a transfer pipette to a 384-well plate. • 3. Addition of enzyme: 5 μL of 2×VEGFR2 kinase solution (with a concentration of 0.5 nM) was taken with a transfer pipette to the corresponding reaction well of the 384-well plate, mixed well and pre-reacted at room temperature for 30 minutes. • 4. 2.5 μL 4× Ultra ULight™-JAK-1 (Tyr1023) Peptide (with a concentration of 200 nM)/ATP (with a concentration of 40 μM) mixture was taken with a transfer pipette to the corresponding reaction well of the 384-well plate. • 5. Negative control: 2.5 μL/well 4× substrate/ATP mixture and 7.5 μL 1× Kinase Assay Buffer were added to the wells of the 384-well plate. • 6. Positive control: 2.5 μL/well 4× substrate/ATP mixture, 2.5 μL/well 1× Kinase Assay Buffer containing 16% DMSO, and 5 μL/well 2×VEGFR-2 kinase solution were added to the 384-well plate. The final concentration of DMSO in the reaction system was 4%. • 7. The mixture was mixed well and then centrifuged and reacted at room temperature in dark for 60 min. • 8. Termination of the enzymatic reaction: 5 μL of 4× stop solution was taken with a transfer pipette to the wells of the 384-well plate, mixed and then centrifuged, and reacted at room temperature for 5 min. • 9. Development of the reaction: 5 μL of 4× detection solution was taken with a transfer pipette to the wells of the 384-well plate for color development, and the mixture was mixed and then centrifuged and reacted at room temperature for 60 min. • 10. The 384-well plate was placed into the Envision plate reader and the signal was detected using the appropriate program. • 11. Analysis and processing of the raw data: The drug concentrations and the corresponding inhibition rates were input into GraphPad Prism5 for calculation, and the inhibition rate of the compounds were calculated as follows: inhibition rate (%)=(reading of positive well−reading of experimental well)/(reading of positive control well−reading of negative control well)×100%. Processing with GraphPad Prism5 software yielded the corresponding IC50 values (the concentration of the compound at which 50% of the highest inhibition of the enzyme is achieved).

[6] = system: Ba/F3 LMNA-NTRK1 cells; experiment: Assay for inhibiting the proliferation of Ba/F3 LMNA-NTRK1 cells (CCK-8); type: cell-based; details: Mus musculus, BaF3
Procedure: In particular, the method of the assay of small molecular compounds for inhibiting cell proliferation is as follows: • 1. Cells cultured to a logarithmic growth phase (adherent cells need to be digested with trypsin and neutralized) were taken, pipetted evenly, transferred to a 15 mL centrifuge tube, and centrifuged at 1000 rpm at room temperature for 4 minutes; • 2. The supernatant was discarded; 5 mL of complete medium was added and pipetted evenly; 10 μL of cell suspension was taken out, mixed well with 10 μL of 0.4% trypan blue, and counted under a cell counter; the proportion of living cells was ensured to be above 90%; • 3. 80 μL of cell suspension per well was seeded into a 96-well plate according to the conditions shown in the attached table, and cultured overnight; in the outer 36 wells of the 96-well plate, no cells were added but only sterile water was added; only the inner 60 wells were used for cell assay and control; • 4. […] 20 μL of the corresponding compounds with different concentration gradients were added to each well of assay wells of the 96-well plate; 20 μL of complete medium was added to positive and negative control wells and shaken well; and the final concentration of DMSO in each well was 0.25%; • 6. After 72 hours of incubation, 10 μL of CCK-8 reagent was added to each well and further incubated at 37° C. for 1-2 hours; and the OD value was read at 450 nm; • 7. Cell survival rate (%)=[(As−Ab)/(Ac−Ab)]*100% • As: Assay well (medium containing cells, CCK-8, compound), • Ac: Control well (medium containing cells, CCK-8), • Ab: Blank well (CCK-8, medium without cell and compound), • 8. The values were imported into Graphpad Prism 5 software for IC50 calculation.

TRKA kinase, sequence (P04629 33-796): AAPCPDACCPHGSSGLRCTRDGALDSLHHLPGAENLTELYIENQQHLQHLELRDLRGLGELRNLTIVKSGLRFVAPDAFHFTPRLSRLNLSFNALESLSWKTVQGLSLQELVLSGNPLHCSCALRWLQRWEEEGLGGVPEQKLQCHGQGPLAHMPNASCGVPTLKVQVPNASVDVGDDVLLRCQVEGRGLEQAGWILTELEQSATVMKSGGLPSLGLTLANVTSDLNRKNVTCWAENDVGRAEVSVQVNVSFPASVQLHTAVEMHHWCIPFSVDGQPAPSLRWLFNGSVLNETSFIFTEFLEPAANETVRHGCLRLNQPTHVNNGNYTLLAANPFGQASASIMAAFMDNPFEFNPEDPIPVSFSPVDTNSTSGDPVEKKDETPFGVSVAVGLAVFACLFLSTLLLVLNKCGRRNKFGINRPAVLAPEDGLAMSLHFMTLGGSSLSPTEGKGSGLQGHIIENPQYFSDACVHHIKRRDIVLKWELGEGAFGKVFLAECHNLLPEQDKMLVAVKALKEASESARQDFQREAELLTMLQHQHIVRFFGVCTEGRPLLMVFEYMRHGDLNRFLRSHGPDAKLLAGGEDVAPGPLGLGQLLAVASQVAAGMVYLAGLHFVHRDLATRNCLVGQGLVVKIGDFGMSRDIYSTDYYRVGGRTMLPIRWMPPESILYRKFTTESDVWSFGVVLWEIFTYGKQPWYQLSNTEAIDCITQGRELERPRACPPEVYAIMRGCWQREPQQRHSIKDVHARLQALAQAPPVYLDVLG

| IC50 [1] [nM] | IC50 [2] [nM] | IC50 [3] [nM] | IC50 [4] [nM] | IC50 [5] [nM] | IC50 [6] [nM] | SMILES |
| --- | --- | --- | --- | --- | --- | --- |
| 50 to 500 | ≤ 50 | 50 to 500 | < 50 |  |  | CCOc1cc2nccc(Oc3ccc(NC(=O)c4cn(C(C)C)c(=O)n(-c5ccc(F)cc5)c4=O)cc3F)c2c2c1OCCO2 [Example 87, N-(3-fluoro-4-((5-ethoxy-2,3-dihydro-[1,4]dioxino[2,3-f]quinolin-10-yl)oxy)phenyl)-3-(4-fluorophenyl)-1-isopropyl-2,4-dioxo-1,2,3,4-tetrahydropyrimidine-5-carboxamide] |
| < 50 |  | ≤ 50 |  | 50 to 500 | < 50 | COc1ccn(-c2ccc(F)cc2)c(=O)c1C(=O)Nc1ccc(Oc2ccnc3cc(OCCCN4CCOCC4)c4c(c23)OCCO4)cc1Cl [Example 144, N-(2-chloro-4-((5-(3-morpholinopropoxy)-2,3-dihydro-[1,4]dioxino[2,3-f]quinolin-10-yl)oxy)phenyl)-1-(4-fluorophenyl)-4-methoxy-2-oxo-1,2-dihydropyridine-3-carboxamide] |
| < 50 | 50 to 500 | ≤ 50 |  |  | < 50 | N#CCCCOc1cc2nccc(Oc3ccc(NC(=O)c4cccn(-c5ccc(F)cc5)c4=O)c(Cl)c3)c2c2c1OCCO2 [Example 131, N-(2-chloro-4-((5-(3-cyanopropoxy)-2,3-dihydro-[1,4]dioxino[2,3-f]quinolin-10-yl)oxy)phenyl)-1-(4-fluorophenyl)-2-oxo-1,2-dihydropyridine-3-carboxamide] |
| < 50 | 50 to 500 | ≤ 50 | < 50 |  | < 50 | Cc1cc(F)ccc1-n1ccc(C(=O)Nc2ccc(Oc3ccnc4cc(OCCCN5CCOCC5)c5c(c34)OCCO5)c(F)c2)n1 [Example 26, 1-(4-fluoro-2-methylphenyl)-N-(3-fluoro-4-((5-(3-morpholinopropoxy)-2,3-dihydro-[1,4]dioxino[2,3-f]quinolin-10-yl)oxy)phenyl)-1H-pyrazole-3-carboxamide] |
| < 50 | ≤ 50 |  | < 50 | > 5000 | < 50 | COc1cc2nccc(Oc3ccc(NC(=O)c4cccn(-c5ccc(F)cc5)c4=O)c(Cl)c3)c2c2c1OCCO2 [Example 123, N-(2-chloro-4-((5-methoxy-2,3-dihydro-[1,4]dioxino[2,3-f]quinolin-10-yl)oxy)phenyl)-1-(4-fluorophenyl)-2-oxo-1,2-dihydropyridine-3-carboxamide] |
| 500 to 5000 | ≤ 50 | 50 to 500 | < 50 |  |  | CC(C)n1cc(C(=O)Nc2ccc(Oc3ccnc4cc(OCC#N)c5c(c34)OCCO5)c(F)c2)c(=O)n(-c2ccc(F)cc2)c1=O [Example 81, N-(3-fluoro-4-((5-(cyanomethoxy)-2,3-dihydro-[1,4]dioxino[2,3-f]quinolin-10-yl)oxy)phenyl)-3-(4-fluorophenyl)-1-isopropyl-2,4-dioxo-1,2,3,4-tetrahydropyrimidine-5-carboxamide] |
| 500 to 5000 | ≤ 50 | ≤ 50 | < 50 |  |  | COc1cc2nccc(Oc3ccc(NC(=O)c4cn(C(C)C)c(=O)n(-c5cccc(F)c5)c4=O)cc3F)c2c2c1OCCO2 [Example 109, N-(3-fluoro-4-((5-methoxy-2,3-dihydro-[1,4]dioxino[2,3-f]quinolin-10-yl)oxy)phenyl)-3-(3-fluorophenyl)-1-isopropyl-2,4-dioxo-1,2,3,4-tetrahydropyrimidine-5-carboxamide] |
| < 50 | 50 to 500 | 50 to 500 |  |  | < 50 | COc1cn(-c2ccc(F)cc2C)nc1C(=O)Nc1ccc(Oc2ccnc3cc(OC)c4c(c23)OCCO4)c(F)c1 [Example 24, 1-(4-fluoro-2-methylphenyl)-N-(3-fluoro-4-((5-methoxy-2,3-dihydro-[1,4]dioxino[2,3-f]quinolin-10-yl)oxy)phenyl)-4-methoxy-1H-pyrazole-3-carboxamide] |
| 50 to 500 | ≤ 50 | 50 to 500 | < 50 |  |  | CC(C)n1cc(C(=O)Nc2ccc(Oc3ccnc4cc(OCCCC#N)c5c(c34)OCCO5)c(F)c2)c(=O)n(-c2ccc(F)cc2)c1=O [Example 82, N-(3-fluoro-4-((5-(3-cyanopropoxy)-2,3-dihydro-[1,4]dioxino[2,3-f]quinolin-10-yl)oxy)phenyl)-3-(4-fluorophenyl)-1-isopropyl-2,4-dioxo-1,2,3,4-tetrahydropyrimidine-5-carboxamide] |
| < 50 | ≤ 50 | ≤ 50 | < 50 |  | < 50 | CCOc1cn(-c2ccc(F)cc2C)nc1C(=O)Nc1ccc(Oc2ccnc3cc(OCCCN4CCOCC4)c4c(c23)OCCO4)c(F)c1 [Example 28, 1-(4-fluoro-2-methylphenyl)-N-(3-fluoro-4-((5-(3-morpholinopropoxy)-2,3-dihydro-[1,4]dioxino[2,3-f]quinolin-10-yl)oxy)phenyl)-4-ethoxy-1H-pyrazole-3-carboxamide] |
| > 5000 | 500 to 5000 |  |  | > 5000 |  | CCOc1ccn(C2CCCCC2)c(=O)c1C(=O)Nc1ccc(Oc2ccnc3cc(OC)c4c(c23)OCCO4)c(F)c1 [Example 119, 1-cyclohexyl-4-ethoxy-N-(3-fluoro-4-((5-methoxy-2,3-dihydro-[1,4]dioxino[2,3-f]quinolin-1 0-yl)oxy)phenyl)-2-oxo-1,2-dihydropyridine-3-carboxamide] |
|  |  | 50 to 500 | < 50 | 50 to 500 | < 50 | CC(C)n1cc(C(=O)Nc2ccc(Oc3ccnc4cc(OCCCCCCN(C)C)c5c(c34)OCCO5)c(F)c2)c(=O)n(-c2ccc(F)cc2)c1=O [Example 85, N-(3-fluoro-4-((5-((6-dimethylamino)hexyloxy)-2,3-dihydro-[1,4]dioxino[2,3-f]quinolin-10-yl)oxy)phenyl)-3-(4-fluorophenyl)-1-isopropyl-2,4-dioxo-1,2,3,4-tetrahydropyrimidine-5-carboxamide] |
